The results in this text go back to patent publication EP4660190A1, “PHARMACEUTICALLY ACCEPTABLE SALT OF COMPOUND AND PREPARATION METHOD THEREFOR” (Jiangsu Chia Tai Fenghai Pharmaceutical Co., Ltd., priority 2023, dated 2024).

Where two headings read alike, the source gives them in different places.

For data set [1], the system named is TDP-43-A315T transgenic mice of ALS model. In words: TDP-43-A315T ALS mice, rotarod test. Type of data set: in vivo. The note with it: 25 mg/kg p.o., Mean±SEM.
Data set [2] has the same test system. In words: TDP-43-A315T ALS mice, muscle tone test. The format is in vivo. As to conditions: 25 mg/kg p.o., Mean±SEM.
The subject of data set [3] is rat spinal cord injury model. In words: Rat spinal cord injury model, Neurofilament 200 (NF200) expression. The format is in vivo, Male SD rats. The note with it: 180 mg/kg single iv, mean±SD, n=6.
The test system of data set [4] is rat spinal cord injury model. In words: Rat spinal cord injury model, pathological changes. As to conditions: 180 mg/kg single iv; spinal cord histopathology.
Data set [5] has as its system rat spinal cord injury model. In words: Rat spinal cord injury model, BBB locomotor scores. Type of data set: in vivo, Male SD rats. As to conditions: 180 mg/kg single iv, mean±SD. From the text: The scoring method is as follows: [table]
The test system of data set [6] is MPTP-induced Parkinson's disease model mice. Briefly: MPTP-induced mouse Parkinson's disease model, pole test. The format is in vivo, C57 mice. As to conditions: mean ± SD.
Data set [7] has the same test system. In words: MPTP-induced mouse Parkinson's disease model, TH-positive cell counts in the substantia nigra pars compacta. Type of data set: in vivo, C57 mice. The note with it: positive control 20 mg/kg daily, four weeks, mean ± SD.
Data set [8] shares this test system. In words: MPTP-induced mouse Parkinson's disease model, grip strength test. The note with it: positive control 20 mg/kg group; Before Modeling; mean ± SD.
Data set [9] has the same test system. Briefly: MPTP-induced mouse Parkinson's disease model, striatal dopamine (DOPA) detection. Type of data set: in vivo, C57 mice. As to conditions: striatum; positive control 20 mg/kg daily, four weeks; mean ± SD.
The test system is the same in data set [10]. In words: MPTP-induced mouse Parkinson's disease model, TH-positive fiber content in the striatum. Type of data set: in vivo, C57 mice. As to conditions: positive control 20 mg/kg daily, four weeks, mean ± SD.

For `Nc1nc2ccc(OC(F)(F)F)cc2s1` [Riluzole, reference compound], the “Rotarod performance” value worked out at 269.8 ± 5.164 s in [1] (female mice, Dosing Schedule (weeks) 2); 258.8 ± 15.65 s in data set [1] (female mice, Dosing Schedule (weeks) 4); 275.3 ± 9.266 s in data set [1] (female mice, Dosing Schedule (weeks) 6); 272.3 ± 10.56 s in data set [1] (female mice, Dosing Schedule (weeks) 8); 238.4 ± 16.32 s in data set [1] (female mice, Dosing Schedule (weeks) 10); 252.3 ± 16.24 s in data set [1] (female mice, Dosing Schedule (weeks) 12). Moreover, the “Rotarod performance” value in data set [1] (female mice, Dosing Schedule (weeks) 14) came out at 270.6 ± 12.70 s; in data set [1] (female mice, Dosing Schedule (weeks) 16), 255.9 ± 17.39 s; in [1] (male mice, Dosing Schedule (weeks) 6), 250.8 ± 12.71 s; in [1] (male mice, Dosing Schedule (weeks) 8), 236.4 ± 16.14 s; in [1] (male mice, Dosing Schedule (weeks) 10), 234.0 ± 10.64 s; in data set [1] (male mice, Dosing Schedule (weeks) 11), 215.6 ± 31.32 s. Besides, the “Rotarod performance” value was 202.4 ± 41.22 s in data set [1] (male mice, Dosing Schedule (weeks) 12) and 135.32 ± 76.92 s in data set [1] (male mice, Dosing Schedule (weeks) 13). Besides, the “Muscle Tone” value in data set [2] (female mice, animal age 6 weeks) was 145.2 ± 5.444 g; in [2] (female mice, animal age 8 weeks), 177.8 ± 9.836 g; in data set [2] (female mice, animal age 10 weeks), 133.6 ± 12.04 g; in data set [2] (female mice, animal age 12 weeks), 161.5 ± 3.666 g; in [2] (female mice, animal age 13 weeks), 146.4 ± 6.928 g; in [2] (female mice, animal age 14 weeks), 143.1 ± 9.165 g. The “Muscle Tone” value was 149.0 ± 6.827 g in data set [2] (female mice, animal age 16 weeks); 144.0 ± 10.127 g in data set [2] (male mice, animal age 6 weeks); 152.4 ± 10.35 g in [2] (male mice, animal age 8 weeks); 150.5 ± 14.46 g in data set [2] (male mice, animal age 10 weeks); 145.4 ± 5.551 g in data set [2] (male mice, animal age 12 weeks); 147.8 ± 1.650 g in [2] (male mice, animal age 13 weeks). Moreover, the “Muscle Tone” value in data set [2] (male mice, animal age 14 weeks) came out at 129.2 ± 1.250 g.
As to `CCC/C(O)=C1/C(=O)Oc2ccccc21.NCCO` [Example 8], the Appearance result by setting is: (0 h) “White solid”; (High Humidity 75%, 10 d) “White solid”; (High Humidity 92.5%, 10 d) “White solid”; (High temperature 40°C, 10 d) “White solid”; (High temperature 60°C, 10 d) “White solid”; (Light, 10 d) “White solid”. The Purity runs as follows: (0 h) 99.19%; (High Humidity 75%, 10 d) 99.71%; (High Humidity 92.5%, 10 d) 99.79%; (High temperature 40°C, 10 d) 99.75%; (High temperature 60°C, 10 d) 99.75%; (Light, 10 d) 99.78%.
As for `C[C@H]1C[C@@H]2[C@H]([C@@H](O)C[C@@]3(C)[C@H]2CC[C@]3(O)C(=O)COC(=O)CCC(=O)O)[C@@]2(C)C=CC(=O)C=C12` [methylprednisolone succinate], the “Positive Count (number per field of view)” value in [3] is on record as 22.2± 6.3 number per field of view. Further, the “cases showing a reduction in lesions” value in [4] is listed as 3 out of 6. For the same compound, the “BBB Locomotor Scores” value in data set [5] (3 d after dosing) stood at 0.1± 0.3; in [5] (7 d after dosing), 2.8± 1.9; in [5] (14 d after dosing), 5.7±4.5; in data set [5] (28 d after dosing), 7.9±3.4; in data set [5] (Before dosing) it was 0± 0.
For the compound “(Z)-3-(1-hydroxybutenyl)benzofuran-2-one sodium salt [Example 2]”, the “Impurities RRT1.41” value is, setting by setting: (0 h) 0.10; (High Humidity 75%, 10 d) 0.12; (High temperature 60°C, 10 d) 0.14; (Light, 10 d) 0.07. For the same compound, the “Impurities RRT1.47” value (0 h) is 0.11; the “Impurities RRT1.47” value (High Humidity 75%, 10 d) was determined as 0.10; the “Impurities RRT1.47” value (High temperature 60°C, 10 d) was 0.09; the “Impurities RRT1.47” value (Light, 10 d) worked out at 0.09. For the same compound, the “Impurities Total impurities” value by setting is: (0 h) 0.21; (High Humidity 75%, 10 d) 0.22; (High temperature 60°C, 10 d) 0.23; (Light, 10 d) 0.16.
As for `N[C@@H](Cc1ccc(O)c(O)c1)C(=O)O` [Levodopa, reference compound], the “Pole test results” value is 8.76 ± 1.57 s in data set [6] (positive control 20 mg/kg daily, four weeks, Study Endpoint) and 9.40 ± 1.62 s in data set [6] (positive control 20 mg/kg group, Before Modeling). Further, the “TH-Positive Cell counts” value in data set [7] is reported as 31.50±4.14^&. Moreover, the “Grip Strength Test” value in data set [8] came out at 272.61 ± 9.01 g. For the same compound, in data set [9], the DOPA is recorded as 1156.72±375.72^& ng/g. Also, the “TH-Positive Fiber Content” value in data set [10] was 536968.78±68050.46^&; in [10] (listed as levodopa) it was 536,968.78±68,050.46.
Take `CCC/C(O)=C1/C(=O)Oc2ccccc21.[Mg]` [Example 5, (Z)-3-(1-hydroxybutylidene)benzofuran-2-one magnesium salt]: the Appearance result runs as follows: (0 h) “White solid”; (High Humidity 75%, 10 d) “White solid”; (High Humidity 92.5%, 10 d) “White solid”; (High temperature 40°C, 10 d) “White solid”; (High temperature 60°C, 10 d) “White solid”; (Light, 10 d) “White solid”. In addition, the Purity (0 h) was determined as 99.67%; the Purity (High Humidity 75%, 10 d) was 99.83%; the Purity (High Humidity 92.5%, 10 d) was determined as 99.79%; the Purity (High temperature 40°C, 10 d) is 99.82%; the Purity (High temperature 60°C, 10 d) worked out at 99.58%; the Purity (Light, 10 d) came out at 99.72%.
As for “(Z)-3-(1-hydroxybutylidene)benzofuran-2-one piperazine salt [Example 7]”, the Appearance entry was “Light yellow solid” (0 h); “Light yellow solid” (High Humidity 75%, 10 d); “Light yellow solid” (High Humidity 92.5%, 10 d); “Light yellow solid” (High temperature 40°C, 10 d); “Light yellow solid” (High temperature 60°C, 10 d); “Light yellow solid” (Light, 10 d). Also, the Purity reads like this: (0 h) 99.59%; (High Humidity 75%, 10 d) 99.66%; (High Humidity 92.5%, 10 d) 99.54%; (High temperature 40°C, 10 d) 99.67%; (High temperature 60°C, 10 d) 99.72%; (Light, 10 d) 99.43%.
For “(Z)-3-(1-hydroxybutenyl)benzofuran-2-one meglumine salt [Example 9]”, the Appearance entry is, setting by setting: (0 h) “White solid”; (High Humidity 75%, 10 d) “White solid”; (High Humidity 92.5%, 10 d) “Yellow oily liquid”; (High temperature 40°C, 10 d) “White solid”; (High temperature 60°C, 10 d) “White solid”; (Light, 10 d) “White solid”. Further, the Purity is 99.53% (0 h); 99.01% (High Humidity 75%, 10 d); 98.62% (High Humidity 92.5%, 10 d); 99.45% (High temperature 40°C, 10 d); 98.04% (High temperature 60°C, 10 d); 99.60% (Light, 10 d).
Turning to `CC/C=C(\O)C1C(=O)Oc2ccccc21.[Ca]` (centres unmarked) [Example 6, (Z)-3-(1-hydroxybutenyl)benzofuran-2-one calcium salt], the Appearance entry is “White solid” (0 h); “White solid” (High Humidity 75%, 10 d); “White solid” (High Humidity 92.5%, 10 d); “White solid” (High temperature 40°C, 10 d); “White solid” (High temperature 60°C, 10 d); “White solid” (Light, 10 d). The Purity is 99.42% (0 h); 99.56% (High Humidity 75%, 10 d); 99.44% (High Humidity 92.5%, 10 d); 99.58% (High temperature 40°C, 10 d); 99.68% (High temperature 60°C, 10 d); 99.43% (Light, 10 d).
In the case of “(Z)-3-(1-hydroxybutenyl)benzofuran-2-one potassium salt [Example 4]”, the Appearance entry runs as follows: (0 h) “White solid”; (High Humidity 75%, 10 d) “White solid”; (High Humidity 92.5%, 10 d) “White solid”; (High temperature 40°C, 10 d) “White solid”; (High temperature 60°C, 10 d) “White solid”; (Light, 10 d) “White solid”. Moreover, the Purity was determined as 99.41% (0 h); 99.34% (High Humidity 75%, 10 d); 99.47% (High Humidity 92.5%, 10 d); 99.66% (High temperature 40°C, 10 d); 99.58% (High temperature 60°C, 10 d); 99.41% (Light, 10 d).
